Results as given in BindingDB's records for doi:10.1016/j.bmcl.2015.09.044 (Keio University, 2015).
Residues, ends and D or L forms follow the SMILES beside them.

Assay: Inhibition of M-CSF/sRANKL-induced mouse BMDM differentiation into osteoclast after 72 hrs by TRAP staining-based microscopic analysis

IC50: 0.78 µM
SMILES: C#CCCC/C=C(\C)C(=O)N(C)[C@H](C(=O)N(C)[C@H](C(=O)N(C)[C@H](C(=O)N(C)[C@H](C(=O)N1CCC[C@H]1C(=O)N1CCC[C@H]1C(=O)CC)C(C)C)C(C)C)[C@@H](C)CC)[C@@H](C)CC (HELM PEPTIDE1{[C#CCCC/C=C(\C)C(=O)[*:2]].[meI].[meI].[meV].[meV].P.[CCC(=O)[C@@H]1CCCN1[*:1]]}$$$$V2.0)
